Tests used:
Assay in all cases: relative viability (nuclei count vs DMSO), 5 days (fraction); higher = more cells survive
[1] = system: RERF-LC-KJ
In short: (§1)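 Lung cancer cell lines in 1536-well plates got either a single drug or a fixed anchor-drug dose together with five library-drug doses (not always all listed) in √10 steps, by pin tool, on the day after seeding. Nuclei were counted after 5 days, and relative viability is the treated-to-vehicle ratio of nuclei counts. Values are medians of duplicate plates.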

[2] = system: NCI-H1915
In short: as §1

[3] = system: NCI-H1755
In short: as §1

[4] = system: LC-2-ad
In short: as §1

[5] = system: SW 1573
In short: as §1

[6] = system: HOP-62
In short: as §1

[7] = system: PC-3 [JPC-3]
In short: as §1

[8] = system: NCI-H2342
In short: as §1

[9] = system: NCI-H2347
In short: as §1

[10] = system: NCI-H2126
In short: as §1

[11] = system: NCI-H2228
In short: as §1

[12] = system: NCI-H358
In short: as §1

[13] = system: NCI-H1734
In short: as §1

[14] = system: HCC-15
In short: as §1

[15] = system: NCI-H522
In short: as §1

[16] = system: LXF-289
In short: as §1

[17] = system: HCC-78
In short: as §1

[18] = system: A-427
In short: as §1

[19] = system: NCI-H647
In short: as §1

[20] = system: NCI-H1975
In short: as §1

[21] = system: NCI-H1792
In short: as §1

[22] = system: SK-LU-1
In short: as §1

CCN(CC)CCCCNc1ncc2cc(-c3cc(OC)cc(OC)c3)c(NC(=O)NC(C)(C)C)nc2n1 + N=C(N)NC(=N)NCCc1ccccc1 [Phenformin] (partner 250 µM) was tested, and the relative viability ([1]; first compound 0.01 µM) was 0.389, the relative viability ([1]; first compound 0.03162 µM) was 0.463 and the relative viability ([1]; first compound 0.1 µM) was 0.469. For the same compound, the relative viability ([1]; first compound 0.3162 µM) was 0.471, the relative viability ([1]; first compound 1 µM) was 0.469 and the relative viability ([2]; first compound 0.01 µM) was 0.376. It also gave a relative viability ([2]; first compound 0.03162 µM) of 0.377, a relative viability ([2]; first compound 0.1 µM) of 0.365 and a relative viability ([2]; first compound 0.3162 µM) of 0.373. For the same compound, the relative viability ([2]; first compound 1 µM) was 0.337, the relative viability ([3]; first compound 0.01 µM) was 0.634 and the relative viability ([3]; first compound 0.03162 µM) was 0.649. It also gave a relative viability ([3]; first compound 0.1 µM) of 0.677, a relative viability ([3]; first compound 0.3162 µM) of 0.675 and a relative viability ([3]; first compound 1 µM) of 0.585. The relative viability ([4]; first compound 0.01 µM) was 0.625, the relative viability ([4]; first compound 0.03162 µM) was 0.55 and the relative viability ([4]; first compound 0.1 µM) was 0.586. It also gave a relative viability ([4]; first compound 0.3162 µM) of 0.629, a relative viability ([4]; first compound 1 µM) of 0.483 and a relative viability ([5]; first compound 0.01 µM) of 0.351. It also gave a relative viability ([5]; first compound 0.03162 µM) of 0.372, a relative viability ([5]; first compound 0.1 µM) of 0.394 and a relative viability ([5]; first compound 0.3162 µM) of 0.36. For the same compound, the relative viability ([5]; first compound 1 µM) was 0.36, the relative viability ([6]; first compound 0.01 µM) was 0.81 and the relative viability ([6]; first compound 0.03162 µM) was 0.847. It also gave a relative viability ([6]; first compound 0.1 µM) of 0.604, a relative viability ([6]; first compound 0.3162 µM) of 0.752 and a relative viability ([6]; first compound 1 µM) of 0.654. It also gave a relative viability ([7]; first compound 0.01 µM) of 0.485, a relative viability ([7]; first compound 0.03162 µM) of 0.484 and a relative viability ([7]; first compound 0.1 µM) of 0.487. The relative viability ([7]; first compound 0.3162 µM) was 0.498, the relative viability ([7]; first compound 1 µM) was 0.449 and the relative viability ([8]; first compound 0.01 µM) was 0.578. It also gave a relative viability ([8]; first compound 0.03162 µM) of 0.582, a relative viability ([8]; first compound 0.1 µM) of 0.56 and a relative viability ([8]; first compound 0.3162 µM) of 0.664. The relative viability ([8]; first compound 1 µM) was 0.648, the relative viability ([9]; first compound 0.01 µM) was 0.381 and the relative viability ([9]; first compound 0.03162 µM) was 0.24. It also gave a relative viability ([9]; first compound 0.1 µM) of 0.278, a relative viability ([9]; first compound 0.3162 µM) of 0.505 and a relative viability ([9]; first compound 1 µM) of 0.379. The relative viability ([10]; first compound 0.01 µM) was 0.496, the relative viability ([10]; first compound 0.03162 µM) was 0.52 and the relative viability ([10]; first compound 0.1 µM) was 0.551. The relative viability ([10]; first compound 0.3162 µM) was 0.623, the relative viability ([10]; first compound 1 µM) was 0.515 and the relative viability ([11]; first compound 0.01 µM) was 0.341. The relative viability ([11]; first compound 0.03162 µM) was 0.336, the relative viability ([11]; first compound 0.1 µM) was 0.384 and the relative viability ([11]; first compound 0.3162 µM) was 0.346. For the same compound, the relative viability ([11]; first compound 1 µM) was 0.304, the relative viability ([12]; first compound 0.01 µM) was 0.358 and the relative viability ([12]; first compound 0.03162 µM) was 0.302. For the same compound, the relative viability ([12]; first compound 0.1 µM) was 0.358, the relative viability ([12]; first compound 0.3162 µM) was 0.472 and the relative viability ([12]; first compound 1 µM) was 0.331. It also gave a relative viability ([13]; first compound 0.01 µM) of 0.356, a relative viability ([13]; first compound 0.03162 µM) of 0.363 and a relative viability ([13]; first compound 0.1 µM) of 0.384. It also gave a relative viability ([13]; first compound 0.3162 µM) of 0.364, a relative viability ([13]; first compound 1 µM) of 0.354 and a relative viability ([14]; first compound 0.01 µM) of 0.466. It also gave a relative viability ([14]; first compound 0.03162 µM) of 0.535, a relative viability ([14]; first compound 0.1 µM) of 0.526 and a relative viability ([14]; first compound 0.3162 µM) of 0.484. The relative viability ([14]; first compound 1 µM) was 0.424, the relative viability ([15]; first compound 0.01 µM) was 0.726 and the relative viability ([15]; first compound 0.03162 µM) was 0.768. For the same compound, the relative viability ([15]; first compound 0.1 µM) was 0.582, the relative viability ([15]; first compound 0.3162 µM) was 0.688 and the relative viability ([15]; first compound 1 µM) was 0.633. It also gave a relative viability ([16]; first compound 0.01 µM) of 0.506, a relative viability ([16]; first compound 0.03162 µM) of 0.542 and a relative viability ([16]; first compound 0.1 µM) of 0.547. For the same compound, the relative viability ([16]; first compound 0.3162 µM) was 0.53, the relative viability ([16]; first compound 1 µM) was 0.424 and the relative viability ([17]; first compound 0.01 µM) was 0.646. It also gave a relative viability ([17]; first compound 0.03162 µM) of 0.732, a relative viability ([17]; first compound 0.1 µM) of 0.663 and a relative viability ([17]; first compound 0.3162 µM) of 0.805. It also gave a relative viability ([17]; first compound 1 µM) of 0.631, a relative viability ([18]; first compound 0.01 µM) of 0.294 and a relative viability ([18]; first compound 0.03162 µM) of 0.273. The relative viability ([18]; first compound 0.1 µM) was 0.289, the relative viability ([18]; first compound 0.3162 µM) was 0.204 and the relative viability ([18]; first compound 1 µM) was 0.173. The relative viability ([19]; first compound 0.01 µM) was 0.451, the relative viability ([19]; first compound 0.03162 µM) was 0.59 and the relative viability ([19]; first compound 0.1 µM) was 0.556. The relative viability ([19]; first compound 0.3162 µM) was 0.804, the relative viability ([19]; first compound 1 µM) was 0.239 and the relative viability ([20]; first compound 0.01 µM) was 0.429. For the same compound, the relative viability ([20]; first compound 0.03162 µM) was 0.398, the relative viability ([20]; first compound 0.1 µM) was 0.481 and the relative viability ([20]; first compound 0.3162 µM) was 0.408. It also gave a relative viability ([20]; first compound 1 µM) of 0.401, a relative viability ([21]; first compound 0.01 µM) of 0.363 and a relative viability ([21]; first compound 0.03162 µM) of 0.43. For the same compound, the relative viability ([21]; first compound 0.1 µM) was 0.312, the relative viability ([21]; first compound 0.3162 µM) was 0.232 and the relative viability ([21]; first compound 1 µM) was 0.168. The relative viability ([22]; first compound 0.01 µM) was 0.661, the relative viability ([22]; first compound 0.03162 µM) was 0.551 and the relative viability ([22]; first compound 0.1 µM) was 0.681. The relative viability ([22]; first compound 0.3162 µM) was 0.586 and the relative viability ([22]; first compound 1 µM) was 0.285.

— the supplement of paper PMC10307832
